Assay results published in patent US20220283500A1, “CHEMICALLY AMPLIFIED POSITIVE-TYPE PHOTOSENSITIVE RESIN COMPOSITION, PHOTOSENSITIVE DRY FILM, PRODUCTION METHOD FOR PHOTOSENSITIVE DRY FILM, PRODUCTION METHOD FOR PATTERNED RESIST FILM, COMPOUND, PHOTO-ACID GENERATOR, AND PRODUCTION METHOD FOR N-ORGANOSULFONYLOXY COMPOUND” (TOKYO OHKA KOGYO CO., LTD., priority 2019, published 2022).

Assay: Evaluation of solubility of acid generator in PGMEA
Settings: maximal concentration dissolved in propylene glycol monomethyl ether acetate (PGMEA)

SMILES	Solvent solubility of acid generator [% by mass]
CCCCC(Oc1cc2c3c(cccc3c1)C(=O)N(OS(=O)(=O)C(F)(F)C(=O)OCCC13CC4CC(CC(C4)C1)C3)C2=O)C(=O)O (stereo not drawn) [PAG-15]	10
CCCCC(Oc1cc2c3c(cccc3c1)C(=O)N(OS(=O)(=O)C(F)(F)C(=O)OC)C2=O)C(=O)O (stereo not drawn) [PAG-13]	10
CC(C)c1cc2c3c(c(C(C)C)ccc3c1)C(=O)N(OS(=O)(=O)C(F)(F)C(=O)OCCC13CC4CC(CC(C4)C1)C3)C2=O [PAG-31]	> 20
CCCCc1ccc2c3c(cccc13)C(=O)N(OS(=O)(=O)C(F)(F)C(=O)OCCC1CCCCC1)C2=O [PAG-2]	> 20
CCCCc1ccc2c3c(cccc13)C(=O)N(OS(=O)(=O)C(F)(F)C(=O)OC)C2=O [PAG-1]	> 20
CCCCC(Oc1cc2c3c(cccc3c1)C(=O)N(OS(=O)(=O)C(F)(F)C(=O)OCCC1CCCCC1)C2=O)C(=O)OC(C)(C)C (stereo not drawn) [PAG-18]	15
CCCCc1ccc2c3c(cccc13)C(=O)N(OS(=O)(=O)C(F)(F)F)C2=O [PAG-6, reference compound]	> 20
COC(=O)C(F)(F)S(=O)(=O)ON1C(=O)c2cccc3cccc(c23)C1=O [PAG-7]	5
O=C1c2cccc3cccc(c23)C(=O)N1OS(=O)(=O)C(F)(F)C(=O)OC1C2CC3OS(=O)(=O)C1C3C2 (stereo not drawn) [PAG-8]	< 1
CCCCC(CC)COC(=O)CSc1ccc2c3c(cccc13)C(=O)N(OS(=O)(=O)C(F)(F)C(=O)OC)C2=O (stereo not drawn) [PAG-9]	> 20
CCCCC(CC)COC(=O)CSc1ccc2c3c(cccc13)C(=O)N(OS(=O)(=O)C(F)(F)C(=O)OCCC1CCCCC1)C2=O (stereo not drawn) [PAG-10]	> 20
CCCCC(CC)COC(=O)CSc1ccc2c3c(cccc13)C(=O)N(OS(=O)(=O)C(F)(F)C(=O)OCCC13CC4CC(CC(C4)C1)C3)C2=O (stereo not drawn) [PAG-11]	> 20
CCCCC(Oc1cc2c3c(cccc3c1)C(=O)N(OS(=O)(=O)C(F)(F)C(=O)OCCC1CCCCC1)C2=O)C(=O)O (stereo not drawn) [PAG-14]	10
COC(=O)C(F)(F)S(=O)(=O)ON1C(=O)c2cc(C(C)C)cc3ccc(C(C)C)c(c23)C1=O [PAG-29]	10
O=C1c2cccc3cccc(c23)C(=O)N1OS(=O)(=O)C(F)(F)F [PAG-5, reference compound]	< 1
CC(C)c1cc2c3c(c(C(C)C)ccc3c1)C(=O)N(OS(=O)(=O)C(F)(F)C(=O)OC1C3CC4OS(=O)(=O)C1C4C3)C2=O (stereo not drawn) [PAG-32]	10
CCCCC(Oc1cc2c3c(cccc3c1)C(=O)N(OS(=O)(=O)C(F)(F)C(=O)OC)C2=O)C(=O)OC(C)(C)C (stereo not drawn) [PAG-17]	15
CCCCC(Oc1cc2c3c(cccc3c1)C(=O)N(OS(=O)(=O)C(F)(F)C(=O)OCCC13CC4CC(CC(C4)C1)C3)C2=O)C(=O)OC(C)(C)C (stereo not drawn) [PAG-19]	15
CC(C)c1cc2c3c(c(C(C)C)ccc3c1)C(=O)N(OS(=O)(=O)C(F)(F)C(=O)OCCC1CCCCC1)C2=O [PAG-30]	> 20
CCCCC(CC)COC(=O)CSc1ccc2c3c(cccc13)C(=O)N(OS(=O)(=O)C(F)(F)C(=O)OC1C3CC4OS(=O)(=O)C1C4C3)C2=O (stereo not drawn) [PAG-12]	> 20
CCCCC(Oc1cc2c3c(cccc3c1)C(=O)N(OS(=O)(=O)C(F)(F)C(=O)OC1C3CC4OS(=O)(=O)C1C4C3)C2=O)C(=O)O (stereo not drawn) [PAG-16]	10
